US8592456B2 (4SC Discovery GmbH, priority 2011, dated 2013)

System: PBMC (T cell proliferation)
Experiment: T cell proliferation assay, PHA-stimulated human PBMC (BrdU ELISA)
Format: cell-based
Details: PHA-stimulated human PBMC, 48 hours, BrdU; column D; activity classes 1-4; read-out: IC50 (Tcell proliferation)
Description: Cell proliferation was analysed using the BrdU based cell proliferation ELISA from Roche (Mannheim, Germany) according to the manufacturer's instructions.
T Cell Proliferation Assay
Peripheral blood mononuclear cells (PBMC) from healthy human donors were isolated by centrifugation over Ficoll-Hypaque (Sigma-Aldrich, Germany) according to manufacturer's instructions. Purified PBMC were washed twice with PBS and resuspended in RPMI1640 culture medium supplemented with 10% dialyzed heat inactivated fetal calf serum, 1.5 mM L-glutamine, 100 U penicillin/ml, and […] (all from PAN Biotech, Aidenbach, Germany). For stimulation, PBMC were seeded at 1×10^5 cells/well, activated with 2 μg/ml phytohaemagglutinin (PHA, Sigma) and incubated with the test compound. After 48 hours proliferation was measured using the BrdU based cell proliferation ELISA from Roche (Mannheim, Germany) according to the manual.

Compound | IC50
Cc1nnc(-c2c(-c3c(F)cccc3Cl)noc2-c2cnn(-c3ccccn3)c2C(F)(F)F)o1 [IB-26, 2-(3-(2-chloro-6-fluorophenyl)-5-(1-(pyridin-2-yl)-5-(trifluoromethyl)-1H-pyrazol-4-yl)isoxazol-4-yl)-5-methyl-1,3,4-oxadiazole] | 100 to 1000 nM
Cc1nnc(-c2c(-c3c(F)cccc3Cl)noc2-c2cnn(-c3cccc(S(N)(=O)=O)c3)c2C(F)(F)F)s1 [IB-23, 3-(4-(3-(2-chloro-6-fluorophenyl)-4-(5-methyl-1,3,4-thiadiazol-2-yl)isoxazol-5-yl)-5-(trifluoromethyl)-1H-pyrazol-1-yl)benzenesulfonamide] | 1000 to 10000 nM
Fc1cccc(-n2ncc(-c3onc(-c4c(F)cccc4Cl)c3-c3ccco3)c2C(F)(F)F)c1 [Example I-17, 3-(2-chloro-6-fluorophenyl)-5-(1-(3-fluorophenyl)-5-(trifluoromethyl)-1H-pyrazol-4-yl)-4-(furan-2-yl)isoxazole] | < 10 nM
Fc1cccc(-n2ncc(-c3onc(-c4c(F)cccc4Cl)c3-c3ccoc3)c2C(F)(F)F)c1 [Example I-13, 3-(2-chloro-6-fluorophenyl)-5-(1-(3-fluorophenyl)-5-(trifluoromethyl)-1H-pyrazol-4-yl)-4-(furan-3-yl)isoxazole] | 1000 to 10000 nM
Cc1nnc(-c2c(-c3c(F)cccc3Cl)noc2-c2cnn(-c3ccccc3Cl)c2C(F)(F)F)s1 [IB-20, 3-(2-chloro-6-fluorophenyl)-5-(1-(2-chlorophenyl)-5-(trifluoromethyl)-1H-pyrazol-4-yl)-4-(5-methyl-1,3,4-thiadiazol-2-yl)isoxazole] | 100 to 1000 nM
Cc1nnc(-c2c(-c3c(F)cccc3Cl)noc2-c2cnn(-c3ccncc3)c2C(F)(F)F)s1 [IB-22, 3-(2-chloro-6-fluorophenyl)-4-(5-methyl-1,3,4-thiadiazol-2-yl)-5-(1-(pyridin-4-yl)-S-(trifluoromethyl)-1H-pyrazol-4-yl)isoxazole] | 100 to 1000 nM

Same assay, conditions: human PBMC, 2 μg/ml PHA, 48 hours, BrdU; read-out: D: IC50 (Tcell proliferation)

Compound | IC50
NC(=O)c1c(-c2c(F)cccc2Cl)noc1-c1cnn(-c2cccc(Cl)c2)c1C(F)(F)F [Example 121, 3-(2-chloro-6-fluorophenyl)-5-(1-(3-chlorophenyl)-5-(trifluoromethyl)-1H-pyrazol-4-yl)isoxazole-4-carboxamide] | 1000 to 10000 nM
CNC(=O)c1c(-c2c(F)cccc2Cl)noc1-c1cnn(-c2cccnc2)c1C(F)(F)F [Example B-55, 3-(2-chloro-6-fluorophenyl)-N-methyl-5-(1-(pyridin-3-yl)-5-(trifluoromethyl)-1H-pyrazol-4-yl)isoxazole-4-carboxamide] | 1000 to 10000 nM
CCOC(=O)c1c(-c2onc(-c3c(F)cccc3Cl)c2C(=O)OC)cnn1-c1ccc(F)cc1F [Example 35, methyl 3-(2-chloro-6-fluorophenyl)-5-(1-(2,4-difluorophenyl)-5-(ethoxycarbonyl)-1H-pyrazol-4-yl)isoxazole-4-carboxylate] | 100 to 1000 nM
Fc1cccc(Cl)c1-c1noc(-c2cnn(-c3ccncc3)c2C(F)(F)F)c1Br [Example B-83, 4-bromo-3-(2-chloro-6-fluorophenyl)-5-(1-(pyridin-4-yl)-5-(trifluoromethyl)-1H-pyrazol-4-yl)isoxazole] | 1000 to 10000 nM
N#Cc1c(-c2c(F)cccc2Cl)noc1-c1cnn(-c2cccc(Cl)c2)c1C(F)(F)F [Example 49, 3-(2-chloro-6-fluorophenyl)-5-(1-(3-chlorophenyl)-5-(trifluoromethyl)-1H-pyrazol-4-yl)isoxazole-4-carbonitrile] | 100 to 1000 nM
CCOC(=O)c1c(-c2c(F)cccc2Cl)noc1-c1cnn(-c2ccccc2[N+](=O)[O-])c1C(F)(F)F [Example B-95, 3-(2-chloro-6-fluorophenyl)-5-(1-(2-nitrophenyl)-5-(trifluoromethyl)-1H-pyrazol-4-yl)isoxazole-4-carboxylate] | 100 to 1000 nM
CNC(=O)c1c(-c2c(F)cccc2Cl)noc1-c1cnn(-c2ccccc2)c1C(F)(F)F [Example 59, 3-(2-chloro-6-fluorophenyl)-N-methyl-5-(1-phenyl-5-(trifluoromethyl)-1H-pyrazol-4-yl)isoxazole-4-carboxamide] | 100 to 1000 nM
NC(=O)c1c(-c2c(F)cccc2Cl)noc1-c1cnn(-c2cccc(F)c2)c1C(F)(F)F [Example 124, 3-(2-chloro-6-fluorophenyl)-5-(1-(3-fluorophenyl)-5-(trifluoromethyl)-1H-pyrazol-4-yl)isoxazole-4-carboxamide] | 1000 to 10000 nM
CCOC(=O)c1c(-c2c(F)cccc2Cl)noc1-c1cnn(CC2CCCO2)c1C(F)(F)F (stereo not drawn) [Example B-96, ethyl 3-(2-chloro-6-fluorophenyl)-5-(1-((tetrahydrofuran-2-yl)methyl)-5-(trifluoromethyl)-1H-pyrazol-4-yl)isoxazole-4-carboxylate] | 10 to 100 nM
COC(=O)c1c(-c2c(F)cccc2Cl)noc1-c1cnn(-c2ccccc2Cl)c1C(F)(F)F [Example B-20, methyl 3-(2-chloro-6-fluorophenyl)-5-(1-(2-chlorophenyl)-5-(trifluoromethyl)-1H-pyrazol-4-yl)isoxazole-4-carboxylate] | 1000 to 10000 nM
CC(C)OC(=O)c1c(-c2c(F)cccc2Cl)noc1-c1cnn(-c2cccc(Cl)c2)c1C(F)(F)F [Example B-31, isopropyl 3-(2-chloro-6-fluorophenyl)-5-(1-(3-chlorophenyl)-5-(trifluoromethyl)-1H-pyrazol-4-yl)isoxazole-4-carboxylate] | < 10 nM
COC(=O)c1c(-c2c(F)cccc2Cl)noc1-c1cnn(-c2cccc(NC(C)=O)c2)c1C(F)(F)F [Example B-89, 5-(1-(3-acetamidophenyl)-5-(trifluoromethyl)-1H-pyrazol-4-yl)-3-(2-chloro-6-fluorophenyl)isoxazole-4-carboxylate] | 100 to 1000 nM
COC(=O)c1c(-c2ccc(Cl)cc2)noc1-c1cnn(-c2cccc(F)c2)c1C(F)(F)F [Example 73, methyl 3-(4-chlorophenyl)-5-(1-(3-fluorophenyl)-5-(trifluoromethyl)-1H-pyrazol-4-yl)isoxazole-4-carboxylate] | 1000 to 10000 nM
Fc1cccc(Cl)c1-c1noc(-c2cnn(-c3cccc(Cl)c3)c2C(F)(F)F)c1Br [Example 140, 4-bromo-3-(2-chloro-6-fluorophenyl)-5-(1-(3-chlorophenyl)-5-(trifluoromethyl)-1H-pyrazol-4-yl)isoxazole] | 10 to 100 nM
CCOC(=O)c1c(-c2onc(-c3c(F)cccc3Cl)c2C(=O)OC)cnn1-c1cccc(F)c1 [Example 8, methyl 3-(2-chloro-6-fluorophenyl)-5-(5-(ethoxycarbonyl)-1-(3-fluorophenyl)-1H-pyrazol-4-yl)isoxazole-4-carboxylate] | 100 to 1000 nM
CCOC(=O)c1c(-c2ccc(Cl)cc2Cl)noc1-c1cnn(-c2cccc(F)c2)c1C(F)(F)F [Example 112, ethyl 3-(2,4-dichlorophenyl)-5-(1-(3-fluorophenyl)-5-(trifluoromethyl)-1H-pyrazol-4-yl)isoxazole-4-carboxylate] | 100 to 1000 nM
COC(=O)c1c(-c2cccc(F)c2)noc1-c1cnn(-c2cccc(F)c2)c1C(F)(F)F [Example 106, methyl 3-(3-fluorophenyl)-5-(1-(3-fluorophenyl)-5-(trifluoromethyl)-1H-pyrazol-4-yl)isoxazole-4-carboxylate] | 1000 to 10000 nM
O=CNc1c(-c2c(F)cccc2Cl)noc1-c1cnn(-c2cccc(Cl)c2)c1C(F)(F)F [Example B-48, N-(3-(2-chloro-6-fluorophenyl)-5-(1-(3-chlorophenyl)-5-(trifluoromethyl)-1H-pyrazol-4-yl)isoxazol-4-yl)formamide] | 1000 to 10000 nM
COC(=O)c1c(-c2ccccc2)noc1-c1cnn(-c2cccc(F)c2)c1C(F)(F)F [Example 51, methyl 5-(1-(3-fluorophenyl)-5-(trifluoromethyl)-1H-pyrazol-4-yl)-3-phenylisoxazole-4-carboxylate] | 1000 to 10000 nM
COC(=O)c1c(-c2c(F)cccc2Cl)noc1-c1cnn(-c2ccccc2I)c1C(F)(F)F [Example 88, methyl 3-(2-chloro-6-fluorophenyl)-5-(1-(2-iodophenyl)-5-(trifluoromethyl)-1H-pyrazol-4-yl)isoxazole-4-carboxylate] | 1000 to 10000 nM
CON(C)C(=O)c1c(-c2c(F)cccc2Cl)noc1-c1cnn(-c2cccc(F)c2)c1C(F)(F)F [Example 135, 3-(2-chloro-6-fluorophenyl)-5-(1-(3-fluorophenyl)-5-(trifluoromethyl)-1H-pyrazol-4-yl)-N-methoxy-N-methylisoxazole-4-carboxamide] | 100 to 1000 nM
CNC(=O)c1c(-c2c(F)cccc2Cl)noc1-c1cnn(-c2ccccc2F)c1C(F)(F)F [Example 19, 3-(2-chloro-6-fluorophenyl)-5-(1-(2-fluorophenyl)-5-(trifluoromethyl)-1H-pyrazol-4-yl)-N-methylisoxazole-4-carboxamide] | 1000 to 10000 nM
N#Cc1c(-c2c(F)cccc2Cl)noc1-c1cnn(-c2cccc(F)c2)c1C(F)(F)F [Example 120, 3-(2-chloro-6-fluorophenyl)-5-(1-(3-fluorophenyl)-5-(trifluoromethyl)-1H-pyrazol-4-yl)isoxazole-4-carbonitrile] | 100 to 1000 nM
O=C(c1c(-c2c(F)cccc2Cl)noc1-c1cnn(-c2ccncc2)c1C(F)(F)F)N1CCCO1 [Example B-57, (3-(2-chloro-6-fluorophenyl)-5-(1-(pyridin-4-yl)-5-(trifluoromethyl)-1H-pyrazol-4-yl)isoxazol-4-yl)(isoxazolidin-2-yl)methanone] | 1000 to 10000 nM
